Test results published in PubChem BioAssay AID2060612 (Molecular Pharmacology Branch, DTP, NCI, 2025).
Values joined by “and” are separate entries in the source; they are usually repeats but may differ in a detail not shown here. Identical values can stand only once.

Test system: 565232-114-T-J1-PDC complex spheroid viability
Assay: Anticancer human tumor 565232-114-T-J1-PDC patient-derived bladder carcinoma cell line growth inhibition [CLK]
Conditions: for viability, T/C: stronger effect = lower value
Summary of the method: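 Multi-cell-type spheroids combined patient-derived tumor cells with HUVEC endothelial cells and human mesenchymal stem cells. Paired agents were dosed in half-log steps down from about clinical Cmax, or from 10 microM where Cmax was unknown.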

[1] = curve of first compound, second compound 0.0316 µM
[2] = curve of first compound, second compound 0.1 µM
[3] = curve of first compound, second compound 0.316 µM
[4] = curve of first compound, second compound 1 µM
[5] = curve of first compound, second compound 3.16 µM
[6] = curve of first compound, second compound 10 µM
[7] = second compound 0.0316 µM, first compound 0.00316 µM
[8] = second compound 0.0316 µM, first compound 0.01 µM
[9] = second compound 0.0316 µM, first compound 0.0316 µM
[10] = second compound 0.0316 µM, first compound 0.1 µM
[11] = second compound 0.0316 µM, first compound 0.316 µM
[12] = second compound 0.0316 µM, first compound 1 µM
[13] = second compound 0.1 µM, first compound 0.00316 µM
[14] = second compound 0.1 µM, first compound 0.01 µM
[15] = second compound 0.1 µM, first compound 0.0316 µM
[16] = second compound 0.1 µM, first compound 0.1 µM
[17] = second compound 0.1 µM, first compound 0.316 µM
[18] = second compound 0.1 µM, first compound 1 µM
[19] = second compound 0.316 µM, first compound 0.00316 µM
[20] = second compound 0.316 µM, first compound 0.01 µM
[21] = second compound 0.316 µM, first compound 0.0316 µM
[22] = second compound 0.316 µM, first compound 0.1 µM
[23] = second compound 0.316 µM, first compound 0.316 µM
[24] = second compound 0.316 µM, first compound 1 µM
[25] = second compound 1 µM, first compound 0.00316 µM
[26] = second compound 1 µM, first compound 0.01 µM
[27] = second compound 1 µM, first compound 0.0316 µM
[28] = second compound 1 µM, first compound 0.1 µM
[29] = second compound 1 µM, first compound 0.316 µM
[30] = second compound 1 µM, first compound 1 µM
[31] = second compound 3.16 µM, first compound 0.00316 µM
[32] = second compound 3.16 µM, first compound 0.01 µM
[33] = second compound 3.16 µM, first compound 0.0316 µM
[34] = second compound 3.16 µM, first compound 0.1 µM
[35] = second compound 3.16 µM, first compound 0.316 µM
[36] = second compound 3.16 µM, first compound 1 µM
[37] = second compound 10 µM, first compound 0.00316 µM
[38] = second compound 10 µM, first compound 0.01 µM
[39] = second compound 10 µM, first compound 0.0316 µM
[40] = second compound 10 µM, first compound 0.1 µM
[41] = second compound 10 µM, first compound 0.316 µM
[42] = second compound 10 µM, first compound 1 µM
[43] = second compound 0.0316 µM, first compound 3.16 µM
[44] = second compound 0.0316 µM, first compound 10 µM
[45] = second compound 0.1 µM, first compound 3.16 µM
[46] = second compound 0.1 µM, first compound 10 µM
[47] = second compound 0.316 µM, first compound 3.16 µM
[48] = second compound 0.316 µM, first compound 10 µM
[49] = second compound 1 µM, first compound 3.16 µM
[50] = second compound 1 µM, first compound 10 µM
[51] = second compound 3.16 µM, first compound 3.16 µM
[52] = second compound 3.16 µM, first compound 10 µM
[53] = second compound 10 µM, first compound 3.16 µM
[54] = second compound 10 µM, first compound 10 µM
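Note: spheroids exposed to compounds for 7 days before readout.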
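Throughout, for viability, T/C: 100% = DMSO vehicle wells with luminescence normalized to vehicle control.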

CCN1CCN(Cc2ccc(Nc3ncc(F)c(-c4cc(F)c5nc(C)n(C(C)C)c5c4)n3)nc2)CC1 + CN1CCN(c2cc(C(=O)Nc3cc4cc(-c5cnn(C)c5)ccc4cn3)ccn2)CC1
IC50 [1]: > 1 µM | IC50 [2]: > 1 µM | IC50 [3]: < 0.00316 µM | IC50 [4]: < 0.00316 µM | IC50 [5]: < 0.00316 µM | IC50 [6]: < 0.00316 µM | viability, T/C [7]: 116% | viability, T/C [8]: 82.1% | viability, T/C [9]: 98.7% | viability, T/C [10]: 92.8% | viability, T/C [11]: 113% | viability, T/C [12]: 123% | viability, T/C [13]: 88.1% | viability, T/C [14]: 90.2% | viability, T/C [15]: 89% | viability, T/C [16]: 103% | viability, T/C [17]: 116% | viability, T/C [18]: 113% | viability, T/C [19]: 15.5% | viability, T/C [20]: 24.7% | viability, T/C [21]: 23.2% | viability, T/C [22]: 29.1% | viability, T/C [23]: 42.4% | viability, T/C [24]: 61.1% | viability, T/C [25]: 0.26% | viability, T/C [26]: 0.27% | viability, T/C [27]: 0.3% | viability, T/C [28]: 0.29% | viability, T/C [29]: 1.31% | viability, T/C [30]: 2.37% | viability, T/C [31]: 0.2% | viability, T/C [32]: 0.22% | viability, T/C [33]: 0.96% | viability, T/C [34]: 0.16% | viability, T/C [35]: 0.25% | viability, T/C [36]: 0.35% | viability, T/C [37]: 0.18% | viability, T/C [38]: 0.2% | viability, T/C [39]: 0.5% | viability, T/C [40]: 0.16% | viability, T/C [41]: 0.21% | viability, T/C [42]: 1.34%

O=C(c1cc(Cc2n[nH]c(=O)c3ccccc23)ccc1F)N1CCN(C(=O)C2CC2)CC1 + CN1CCN(c2cc(C(=O)Nc3cc4cc(-c5cnn(C)c5)ccc4cn3)ccn2)CC1
IC50 [1]: > 10 µM | IC50 [2]: > 10 µM | IC50 [3]: < 0.0316 µM | IC50 [4]: < 0.0316 µM | IC50 [5]: < 0.0316 µM | IC50 [6]: < 0.0316 µM | viability, T/C [9]: 110% | viability, T/C [10]: 117% | viability, T/C [11]: 109% | viability, T/C [12]: 94.4% | viability, T/C [43]: 128% | viability, T/C [44]: 130% | viability, T/C [15]: 122% | viability, T/C [16]: 106% | viability, T/C [17]: 139% | viability, T/C [18]: 115% | viability, T/C [45]: 148% | viability, T/C [46]: 108% | viability, T/C [21]: 23.3% | viability, T/C [22]: 22.6% | viability, T/C [23]: 24.8% | viability, T/C [24]: 20.1% | viability, T/C [47]: 19.8% | viability, T/C [48]: 16% | viability, T/C [27]: 0.19% | viability, T/C [28]: 1.21% | viability, T/C [29]: 0.25% | viability, T/C [30]: 0.17% | viability, T/C [49]: 0.18% | viability, T/C [50]: 0.19% | viability, T/C [33]: 0.15% | viability, T/C [34]: 0.29% | viability, T/C [35]: 1.69% | viability, T/C [36]: 0.26% | viability, T/C [51]: 2.21% | viability, T/C [52]: 4.24% | viability, T/C [39]: 1.42% | viability, T/C [40]: 0.19% | viability, T/C [41]: 3.03% | viability, T/C [42]: 0.19% | viability, T/C [53]: 0.25% | viability, T/C [54]: 0.28%

CCN1CCN(Cc2ccc(Nc3ncc(F)c(-c4cc(F)c5nc(C)n(C(C)C)c5c4)n3)nc2)CC1 + CNC(=O)c1ccc(Nc2nc(OC3CCCC3)c3c(-c4ccc5nc(C)oc5c4)c[nH]c3n2)c(OC)c1
IC50 [1]: > 1 µM | IC50 [2]: > 1 µM | IC50 [3]: < 0.00316 µM | IC50 [4]: < 0.00316 µM | IC50 [5]: < 0.00316 µM | IC50 [6]: < 0.00316 µM | viability, T/C [7]: 84.4% | viability, T/C [8]: 81.1% | viability, T/C [9]: 84.7% | viability, T/C [10]: 82.6% | viability, T/C [11]: 119% | viability, T/C [12]: 129% | viability, T/C [13]: 53.9% | viability, T/C [14]: 56.5% | viability, T/C [15]: 48.7% | viability, T/C [16]: 64% | viability, T/C [17]: 58.3% | viability, T/C [18]: 66.7% | viability, T/C [19]: 32.8% | viability, T/C [20]: 40.6% | viability, T/C [21]: 32.6% | viability, T/C [22]: 38.2% | viability, T/C [23]: 42.3% | viability, T/C [24]: 46.4% | viability, T/C [25]: 23.9% | viability, T/C [26]: 26.5% | viability, T/C [27]: 24.7% | viability, T/C [28]: 34.2% | viability, T/C [29]: 35.8% | viability, T/C [30]: 39.2% | viability, T/C [31]: 18.1% | viability, T/C [32]: 19% | viability, T/C [33]: 25% | viability, T/C [34]: 22.9% | viability, T/C [35]: 27.2% | viability, T/C [36]: 37% | viability, T/C [37]: 19.9% | viability, T/C [38]: 18.4% | viability, T/C [39]: 21.7% | viability, T/C [40]: 22.5% | viability, T/C [41]: 31.2% | viability, T/C [42]: 27.1%

CCN1CCN(Cc2ccc(Nc3ncc(F)c(-c4cc(F)c5nc(C)n(C(C)C)c5c4)n3)nc2)CC1
viability, T/C (compound 0.00316 µM): 90.3% and 109% | viability, T/C (compound 0.01 µM): 84.6% and 93.8% | viability, T/C (compound 0.0316 µM): 99.3% and 92.6% | viability, T/C (compound 0.1 µM): 85.6% and 91.6% | viability, T/C (compound 0.316 µM): 103% and 81.7% | viability, T/C (compound 1 µM): 120% and 115% | IC50 (curve of compound): > 1 µM

Cn1ncnc1[C@H]1c2n[nH]c(=O)c3cc(F)cc(c23)N[C@@H]1c1ccc(F)cc1
viability, T/C (compound 0.000316 µM): 93.9% and 110% | viability, T/C (compound 0.001 µM): 72.5% and 92.8% | viability, T/C (compound 0.00316 µM): 77.5% and 109% | viability, T/C (compound 0.01 µM): 109% and 97.4% | viability, T/C (compound 0.0316 µM): 104% and 99.3% | viability, T/C (compound 0.1 µM): 105% and 37% | IC50 (curve of compound): > 0.1 µM and 0.0786 µM

Nc1ccn(C2OC(CO)C(O)C2(F)F)c(=O)n1 (centres undefined) + CNC(=O)c1ccc(Nc2nc(OC3CCCC3)c3c(-c4ccc5nc(C)oc5c4)c[nH]c3n2)c(OC)c1
IC50 [1]: 0.036 µM | IC50 [2]: < 0.0316 µM | IC50 [3]: < 0.0316 µM | IC50 [4]: < 0.0316 µM | IC50 [5]: < 0.0316 µM | IC50 [6]: < 0.0316 µM | viability, T/C [9]: 54.3% | viability, T/C [10]: 18.6% | viability, T/C [11]: 8.71% | viability, T/C [12]: 7.4% | viability, T/C [43]: 11.2% | viability, T/C [44]: 13.6% | viability, T/C [15]: 35.7% | viability, T/C [16]: 22% | viability, T/C [17]: 8.15% | viability, T/C [18]: 9.21% | viability, T/C [45]: 13.3% | viability, T/C [46]: 11.8% | viability, T/C [21]: 26.2% | viability, T/C [22]: 19.5% | viability, T/C [23]: 8.41% | viability, T/C [24]: 7.45% | viability, T/C [47]: 12.3% | viability, T/C [48]: 12.2% | viability, T/C [27]: 16.9% | viability, T/C [28]: 14.9% | viability, T/C [29]: 8.75% | viability, T/C [30]: 7.6% | viability, T/C [49]: 9.48% | viability, T/C [50]: 8.93% | viability, T/C [33]: 19.3% | viability, T/C [34]: 14.5% | viability, T/C [35]: 5.99% | viability, T/C [36]: 5.99% | viability, T/C [51]: 6.76% | viability, T/C [52]: 6.01% | viability, T/C [39]: 17.7% | viability, T/C [40]: 13.9% | viability, T/C [41]: 6.66% | viability, T/C [42]: 6.31% | viability, T/C [53]: 6.89% | viability, T/C [54]: 5.15%

CCCS(=O)(=O)Nc1ccc(F)c(C(=O)c2c[nH]c3ncc(-c4ccc(Cl)cc4)cc23)c1F
viability, T/C (compound 0.0316 µM): 81.4% | viability, T/C (compound 0.1 µM): 88.2% | viability, T/C (compound 0.316 µM): 101% | viability, T/C (compound 1 µM): 104% | viability, T/C (compound 3.16 µM): 113% | viability, T/C (compound 10 µM): 21.5% | IC50 (curve of compound): 6.49 µM
